From BindingDB's records for doi:10.1021/jm00002a012 (Merck Research Laboratories, 1995)

Biological target: Human immunodeficiency virus type 1 protease (Human immunodeficiency virus 1, UniProt Q72874)
Assay: Inhibition of HIV-1 protease was determined in vitro

## CC(C)(C)NC(=O)[C@@H]1C[C@@H]2CCCC[C@@H]2CN1C[C@@H](O)[C@H](Cc1ccccc1)NC(=O)[C@@H](NC(=O)c1ccc2ccccc2n1)[C@H]1CCOC1 [(3S,4aS,8aS)-N-tert-butyl-2-[(2R,3S)-2-hydroxy-3-[(2S)-2-[(3R)-oxolan-3-yl]-2-(quinolin-2-ylformamido)acetamido]-4-phenylbutyl]-decahydroisoquinoline-3-carboxamide]
  IC50: 0.05 nM
